From patent US5215981A, “Polyether antibiotic MI215-NF3 substance, production process thereof, and agent for control of chicken coccidiosis” (Hokko Chemical Industry Co., Ltd., priority 1988, dated 1993)

Test system: Eimeria tenella
Assay: Anticoccidial activity in chicken inoculated with Eimeria tenella oocysts
Type: in vivo
Conditions: for Rate (%) of relative body weight gain / Survival rate (%): 7 days after infection; for Lesion scores: cecum, 7th day after infection; for ACI (Anticoccidial Index): ACI=(relative weight gain+survival rate)-(lesion scores+oocyst scores)
Description: The activity of MI215-NF3 substance for controlling chicken coccidiosis was tested as summarized below.
1. Newly-hatched chicken (male) were preliminarily raised for 1 week, and […] chicken were used in the test.
2. The body weights of the chicken were individually measured at the beginning of the test. To make up each test group, ten chicken were selected and alloted in each group so as to minimize variations among the test groups.
3. Chicken were orally inoculated with 5×10^4 oocysts of Eimeria tenella per chick through a stomach probe tube.
4. After the oocyst inoculation, each chick was allowed to take ad libitum a feed which had been prepared by mixing a predetermined amount of MI215-NF3 substance (sodium salt) with a special feed containing no anticoccidial agent. Incidentally, the chicken were also allowed to drink water ad libitum.
5. Up to the 7th day after the oocyst inoculation, the number of oocysts in feces from each chick and the state of the feces were observed everyday.
6. Each chick was anatomized on the 7th day after the infection. Anatomical procedures were as follows.
1) The body weight of each chick was measured.
2) Each chick was sacrificed by dislocation of neck cervical fracture.
3) Each chick was subjected to celiotomy and the cecum was enucleated. The cecum was visually inspected for any lesions on both outer and inner walls of cecum.
4) The cecum thus inspected was individually disintegrated in a homogenizer, whereby a cecum suspension was prepared. The number of oocysts in the suspension was counted.
5) Based on the results of the above inspections, the value of ACI (Anticoccidial Index) was determined in accordance with the evaluation method proposed by Merck & Co., Inc., U.S.A., namely, by the following equation:
ACI=(rate (%) of relative body weight gain+survival rate (%) of
chick)-(lesion scores+oocyst scores)
Upon determination of the above ACI value, the "rate of weight gain" of the chicken in each group of chicken during the test period for estimation of the drug efficacy and the "rate of relative body weight gain" used for the calculation of ACI were evaluated in accordance with the following equations: […]
______________________________________
Rate (%) of body weight gain = [(mean body weight of
chicken at the end of the test - mean body
weight of the chicken at the beginning of
the test) .div. mean body weight of the chicken
at the beginning of the test] × 100.
Rate (%) of relative body weight gain =
[(rate of body weight gain of the treated group
or an infected but non-treated group) .div. rate
of body weight gain of a non-infected and non-
On the other hand, the term "lesion scores" means a value which is obtained by evaluating, in terms of indexes, the results of visual inspection of lesions on an enucleated cecum sample. The term "oocyst scores" means a value which is obtained by evaluating, in terms of indexes, the number of oocysts actually counted. Details of the procedure for the determination of ACI values are described, for example, in the literature compiled by Kiyoshi Tsunoda, "Chicken Coccidiosis", pp 95-101, Chikusan Shuppan Sha (May, 1983).

| Structure (SMILES) | Oocyst scores (50 ppm in feed) | Rate (%) of relative body weight gain (50 ppm in feed) | Survival rate (%) (50 ppm in feed) | Lesion scores (50 ppm in feed) | ACI (Anticoccidial Index) (50 ppm in feed) | Oocyst scores (100 ppm in feed) | Rate (%) of relative body weight gain (100 ppm in feed) | Survival rate (%) (100 ppm in feed) | Lesion scores (100 ppm in feed) | ACI (Anticoccidial Index) (100 ppm in feed) |
| --- | --- | --- | --- | --- | --- | --- | --- | --- | --- | --- |
| CC[C@@H](C(=O)[C@@H](C)[C@@H](O)[C@H](C)[C@@H]1O[C@@H]([C@@H](CC)C(=O)O)CC[C@@H]1C)[C@H]1O[C@]2(C=C[C@@H](O)[C@]3(CC[C@@](C)([C@H]4CC[C@](O)(CC)[C@H](C)O4)O3)O2)[C@H](C)C[C@@H]1C [Salinomycin, salinomycin] | 10 | 71.13% | 100% | 34.0 | 127.1 | – | – | – | – | – |
| CC[C@@]1([C@@H]2O[C@@H]([C@H]3O[C@@](O)(CO)[C@H](C)C[C@@H]3C)C[C@@H]2C)CC[C@H]([C@]2(C)CC[C@]3(C[C@H](O)[C@@H](C)[C@@H]([C@@H](C)[C@@H](OC)[C@H](C)C(=O)O)O3)O2)O1 [Monensin] | – | – | – | – | – | 20 | 96.13% | 100% | 32.0 | 144.1 |
